Here are results for seven compounds from ChEMBL document CHEMBL1152256, “Synthesis of Arabino glycosyl triazoles as potential inhibitors of mycobacterial cell wall biosynthesis” (2008).

In brackets after ≈: the same amount, converted by molar mass. Activity calls are given as the source filed them. No cut-off for these calls is given here.

Experiment [1] concerns Mycobacterium tuberculosis. Nature of the experiment: Antimycobacterial activity against Mycobacterium bovis BCG by alamar blue assay. The class given is functional. The settings on record: variant bovis BCG.
Experiment [2] has as its system Mycobacterium tuberculosis. Nature of the experiment: Antimycobacterial activity against Mycobacterium bovis BCG at 1 mg/mL by alamar blue assay. The class given is functional, organism-based. To be noted: variant bovis BCG. (In general: Alamar Blue is a resazurin reagent that responds to reducing activity.)

In general, MIC refers to the lowest concentration that inhibits growth of the organism. Low readings indicate a more susceptible organism, high ones a less susceptible organism. In experiment [1], `CCCCCCc1cn([C@@H]2O[C@H](CO)[C@@H](O)[C@@H]2O)nn1` gave an MIC of 500 µg/mL (≈ 1750 µM). The same measure, in the same setting: in the case of `CCCCCCCCCCc1cn([C@@H]2O[C@H](CO)[C@@H](O)[C@@H]2O)nn1` it was 250 µg/mL (≈ 732 µM).

With `OC[C@H]1O[C@@H](n2cc(-c3ccccc3)nn2)[C@@H](O)[C@@H]1O`, the result in experiment [2] was inactive. Consider `CCCCCCCCc1cn([C@@H]2O[C@H](CO)[C@@H](O)[C@@H]2O)nn1`, for which the MIC in experiment [1] stood at 62 µg/mL (≈ 198 µM). The same measure, in the same setting: with `CCCCCCCCCCCCCCOCc1cn([C@@H]2O[C@H](CO)[C@@H](O)[C@@H]2O)nn1` the figure was 31 µg/mL (≈ 72.5 µM); with `NNC(=O)c1ccncc1` [ISONIAZID], 0.1 µg/mL (≈ 0.729 µM); with `CC(C)=CCC/C(C)=C/CC/C(C)=C/COCc1cn([C@@H]2O[C@H](CO)[C@@H](O)[C@@H]2O)nn1`, 62 µg/mL (≈ 142 µM).
